Experimental data published in patent publication US20200055839A1 (priority 2017, published 2020).

System: NL-RLuc virus
Assay: Inhibition of HIV replication (NL-RLuc virus, luciferase readout in MT-2 cells)
Type: cell-based
Settings: Human immunodeficiency virus 1, MT2, 120 h, MT-2 cells infected with NL-RLuc virus, 5 days of incubation, 10% FBS, at least 2 experiments
Summary of the method: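 EC50 derived via median effect equation from at least 2 experiments, using luciferase expression as virus-growth readout. Replication-competent NL-RLuc reporter virus (nef partly replaced by Renilla luciferase) infected MT-2 cells with serial compound dilutions; 5-day incubation in RPMI 1640 plus 10% FBS.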

SMILES | EC50 [nM]
Cc1ncc(-c2ccc(OCCc3ccc(F)cc3)cn2)c(N2CCC(C)(C)CC2)c1[C@H](OC(C)(C)C)C(=O)O [Example 126, (2S)-2-(tert-Butoxy)-2-[4′-(4,4-dimethylpiperidin-1-yl)-5-[2-(4-fluorophenyl)ethoxy]-6′-methyl-[2, 3′-bipyridine]-5′-yl]acetic acid] | 0.4
Cc1ncc(-c2cc(F)c(OCCc3ccc(F)cc3)c(F)c2)c(N2CCC(C)(C)CC2)c1[C@H](OC(C)(C)C)C(=O)O [Example 127, (S)-2-(tert-Butoxy)-2-(5-(3,5-difluoro-4-(4-fluorophenethoxy)phenyl)-4-(4,4-dimethylpiperidin-1-yl)-2-methylpyridin-3-yl)acetic acid] | 4
Cc1ncc(-c2ccc(OCCc3ccccc3F)c(F)c2)c(N2CCC(C)(C)CC2)c1[C@H](OC(C)(C)C)C(=O)O [Example 128, (S)-2-(tert-Butoxy)-2-(4-(4,4-dimethylpiperidin-1-yl)-5-(3-fluoro-4-(2-fluorophenethoxy)phenyl)-2-methylpyridin-3-yl)acetic acid] | 2
Cc1ncc(-c2cc(F)c(F)c(F)c2)c(N2CCC(C)(C)CC2)c1[C@H](OC(C)(C)C)C(=O)O [Example 129, (2S)-2-(tert-Butoxy)-2-[4-(4,4-dimethylpiperidin-1-yl)-2-methyl-5-(3,4,5-trifluorophenyl)pyridin-3-yl]acetic acid] | 3
Cc1ncc(-c2cc(F)ccc2F)c(N2CCC(C)(C)CC2)c1[C@H](OC(C)(C)C)C(=O)O [Example 130, (2S)-2-(tert-Butoxy)-2-[5-(2,5-difluorophenyl)-4-(4,4-dimethylpiperidin-1-yl)-2-methylpyridin-3-yl]acetic acid] | 13
Cc1ncc(-c2cccc(F)c2)c(N2CCC(C)(C)CC2)c1[C@H](OC(C)(C)C)C(=O)O [Example 133, (2S)-2-(tert-Butoxy)-2-[4-(4,4-dimethylpiperidin-1-yl)-5-(3-fluorophenyl)-2-methylpyridin-3-yl]acetic acid] | 4
Cc1ncc(-c2ccccc2)c(N2CCC(C)(C)CC2)c1[C@H](OC(C)(C)C)C(=O)O [Example 134, (2S)-2-(tert-Butoxy)-2-[4-(4,4-dimethylpiperidin-1-yl)-2-methyl-5-phenylpyridin-3-yl]acetic acid] | 7
Cc1ncc(-c2ccc(F)cc2)c(N2CCC(C)(C)CC2)c1[C@H](OC(C)(C)C)C(=O)O [Example 135, (2S)-2-(tert-Butoxy)-2-[4-(4,4-dimethylpiperidin-1-yl)-5-(4-fluorophenyl)-2-methylpyridin-3-yl]acetic acid] | 3
COc1ccc(-c2cnc(C)c([C@H](OC(C)(C)C)C(=O)O)c2N2CCC(C)(C)CC2)cc1 [Example 136, (2S)-2-(tert-Butoxy)-2-[4-(4,4-dimethylpiperidin-1-yl)-5-(4-methoxyphenyl)-2-methylpyridin-3-yl]acetic acid] | 2
Cc1ccccc1-c1cnc(C)c([C@H](OC(C)(C)C)C(=O)O)c1N1CCC(C)(C)CC1 [Example 137, (2S)-2-(tert-Butoxy)-2-[4-(4,4-dimethylpiperidin-1-yl)-2-methyl-5-(2-methylphenyl)pyridin-3-yl]acetic acid] | 53
Cc1ncc(-c2ccccc2-c2ccccc2)c(N2CCC(C)(C)CC2)c1[C@H](OC(C)(C)C)C(=O)O [Example 138, (2S)-2-(5-{[1,1′-Biphenyl]-2-yl}-4-(4,4-dimethylpiperidin-1-yl)-2-methylpyridin-3-yl)-2-(tert-butoxy)acetic acid] | 71
COc1c(F)cc(-c2c(CO)nc(C)c([C@H](OC(C)(C)C)C(=O)O)c2N2CCC(C)(C)CC2)cc1F [Example 139, (S)-2-(tert-Butoxy)-2-(5-(3,5-difluoro-4-methoxyphenyl)-4-(4,4-dimethylpiperidin-1-yl)-6-(hydroxymethyl)-2-methylpyridin-3-yl)acetic acid] | 27
Cc1nc(CO)c(-c2ccc(F)c(F)c2)c(N2CCC(C)(C)CC2)c1[C@H](OC(C)(C)C)C(=O)O [Example 140, (2S)-2-(tert-Butoxy)-2-[5-(3,4-difluorophenyl)-4-(4,4-dimethylpiperidin-1-yl)-6-(hydroxymethyl)-2-methylpyridin-3-yl]acetic acid] | 53
Cc1ncc(-c2ccncc2)c(N2CCC(C)(C)CC2)c1[C@H](OC(C)(C)C)C(=O)O [Example 141, (2S)-2-(tert-Butoxy)-2-[4-(4,4-dimethylpiperidin-1-yl)-6-methyl-[3, 4′-bipyridine]-5-yl]acetic acid] | 8
Cc1cc(-c2cnc(C)c([C@H](OC(C)(C)C)C(=O)O)c2N2CCC(C)(C)CC2)ccn1 [Example 142, (2S)-2-(tert-Butoxy)-2-[4-(4,4-dimethylpiperidin-1-yl)-2′,6-dimethyl-[3, 4′-bipyridine]-5-yl]acetic acid] | 6
Cc1ncc(-c2cccc(Cl)c2)c(N2CCC(C)(C)CC2)c1[C@H](OC(C)(C)C)C(=O)O [Example 143, (2S)-2-(tert-Butoxy)-2-[5-(3-chlorophenyl)-4-(4,4-dimethylpiperidin-1-yl)-2-methylpyridin-3-yl]acetic acid] | 4

SMILES | EC50 [nM]
Cc1ncc(-c2cccc(-c3cccc(Cl)c3)c2)c(N2CCC(C)(C)CC2)c1[C@H](OC(C)(C)C)C(=O)O [Example 144, (2S)-2-(tert-butoxy)-2-(5-{3′-chloro-[1,1′-biphenyl]-3-yl}-4-(4,4-dimethylpiperidin-1-yl)-2-methylpyridin-3-yl)acetic acid] | 78
Cc1ncc(-c2cccc(Cl)c2F)c(N2CCC(C)(C)CC2)c1[C@H](OC(C)(C)C)C(=O)O [Example 145, (2S)-2-(tert-Butoxy)-2-[5-(3-chloro-2-fluorophenyl)-4-(4,4-dimethylpiperidin-1-yl)-2-methylpyridin-3-yl]acetic acid] | 5
Cc1ncc(-c2cccc(C(N)=O)c2)c(N2CCC(C)(C)CC2)c1[C@H](OC(C)(C)C)C(=O)O [Example 146, (2S)-2-(tert-Butoxy)-2-[5-(3-carbamoylphenyl)-4-(4,4-dimethylpiperidin-1-yl)-2-methylpyridin-3-yl]acetic acid] | 142
Cc1ncc(-c2cccc(C(=O)O)c2)c(N2CCC(C)(C)CC2)c1[C@H](OC(C)(C)C)C(=O)O [Example 147, 3-{5-[(S)-(tert-butoxy) (carboxy)methyl]-4-(4,4-dimethylpiperidin-1-yl)-6-methylpyridin-3-yl}benzoic acid] | 328
Cc1ncc(-c2cncc(F)c2)c(N2CCC(C)(C)CC2)c1[C@H](OC(C)(C)C)C(=O)O [Example 148, (2S)-2-(tert-Butoxy)-2-[4-(4,4-dimethylpiperidin-1-yl)-5′-fluoro-6-methyl-[3, 3′-bipyridine]-5-yl]acetic acid] | 7
COc1ccc(-c2cnc(C)c([C@H](OC(C)(C)C)C(=O)O)c2N2CCC(C)(C)CC2)c(F)c1F [Example 149, (2S)-2-(tert-Butoxy)-2-[5-(2,3-difluoro-4-methoxyphenyl)-4-(4,4-dimethylpiperidin-1-yl)-2-methylpyridin-3-yl]acetic acid] | 6
COc1ccc(F)c(-c2cnc(C)c([C@H](OC(C)(C)C)C(=O)O)c2N2CCC(C)(C)CC2)c1 [Example 150, (2S)-2-(tert-Butoxy)-2-[4-(4,4-dimethylpiperidin-1-yl)-5-(2-fluoro-5-methoxyphenyl)-2-methylpyridin-3-yl]acetic acid] | 12
COc1ccc(F)cc1-c1cnc(C)c([C@H](OC(C)(C)C)C(=O)O)c1N1CCC(C)(C)CC1 [Example 151, (2S)-2-(tert-Butoxy)-2-[4-(4,4-dimethylpiperidin-1-yl)-5-(5-fluoro-2-methoxyphenyl)-2-methylpyridin-3-yl]acetic acid] | 6
COc1c(Cl)cccc1-c1cnc(C)c([C@H](OC(C)(C)C)C(=O)O)c1N1CCC(C)(C)CC1 [Example 152, (2S)-2-(tert-Butoxy)-2-[5-(3-chloro-2-methoxyphenyl)-4-(4,4-dimethylpiperidin-1-yl)-2-methylpyridin-3-yl]acetic acid] | 60
Cc1ncc(-c2ccccc2C#N)c(N2CCC(C)(C)CC2)c1[C@H](OC(C)(C)C)C(=O)O [Example 153, (2S)-2-(tert-Butoxy)-2-[5-(2-cyanophenyl)-4-(4,4-dimethylpiperidin-1-yl)-2-methylpyridin-3-yl]acetic acid] | 29
Cc1ncc(-c2ccccc2C(N)=O)c(N2CCC(C)(C)CC2)c1[C@H](OC(C)(C)C)C(=O)O [Example 154, (2S)-2-(tert-butoxy)-2-[5-(2-carbamoylphenyl)-4-(4,4-dimethylpiperidin-1-yl)-2-methylpyridin-3-yl]acetic acid] | 52
Cc1ncc(-c2cccnc2)c(N2CCC(C)(C)CC2)c1[C@H](OC(C)(C)C)C(=O)O [Example 155, (2S)-2-(tert-Butoxy)-2-[4-(4,4-dimethylpiperidin-1-yl)-6-methyl-[3, 3′-bipyridine]-5-yl]acetic acid] | 11
COc1cccc(-c2cnc(C)c([C@H](OC(C)(C)C)C(=O)O)c2N2CCC(C)(C)CC2)c1F [Example 156, (2S)-2-(tert-Butoxy)-2-[4-(4,4-dimethylpiperidin-1-yl)-5-(2-fluoro-3-methoxyphenyl)-2-methylpyridin-3-yl]acetic acid] | 1
COc1cc(F)c(F)c(-c2cnc(C)c([C@H](OC(C)(C)C)C(=O)O)c2N2CCC(C)(C)CC2)c1 [Example 157, (2S)-2-(tert-Butoxy)-2-[5-(2,3-difluoro-5-methoxyphenyl)-4-(4,4-dimethylpiperidin-1-yl)-2-methylpyridin-3-yl]acetic acid] | 22
COc1cccc(-c2cnc(C)c([C@H](OC(C)(C)C)C(=O)O)c2N2CCC(C)(C)CC2)c1OC [Example 158, (2S)-2-(tert-Butoxy)-2-[5-(2,3-dimethoxyphenyl)-4-(4,4-dimethylpiperidin-1-yl)-2-methylpyridin-3-yl]acetic acid] | 16
